Experiment in all cases: NCI tumour cell line growth inhibition, 48 h
Experiment [1] relates to RPMI-8226 leukemia.
In experiment [2] the test system is T-47D breast.
In experiment [3] the test system is ACHN renal.
In experiment [4] the test system is NCI-H23 lung.
For experiment [5], the system named is OVCAR-5 ovarian.
For experiment [6], the system named is MDA-MB-435.
The test system of experiment [7] is SK-MEL-2 melanoma.
Experiment [8] relates to HCT-15 colon.
Experiment [9] deals with CCRF-CEM leukemia.
In experiment [10] the test system is SR leukemia.
Experiment [11] relates to U251 CNS.
Experiment [12] relates to MOLT-4 leukemia.
In experiment [13] the test system is IGROV1 ovarian.
Experiment [14] has as its system HS 578T breast.
The test system of experiment [15] is HOP-92 NSCLC.
Experiment [16] has as its system MCF7 breast.
Experiment [17] has as its system SK-MEL-28 melanoma.
In experiment [18] the test system is SN12C renal.
Experiment [19] deals with BT-549 breast.
Experiment [20] relates to MALME-3M melanoma.

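These data come from cells grown in 96-well plates and exposed to compound for 48 hours at five concentrations. TGI marks complete inhibition of growth.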

As to `CC1=NN(c2cccc(Cl)c2)C(=N/c2nc3ccccc3s2)/C1=C\c1cccs1`, the TGI in experiment [1] was 32.5 µM; in experiment [2] it was over 100 µM; in [3], over 100 µM; in experiment [4] it was 61.8 µM; in experiment [5], over 100 µM; in experiment [6] it was over 100 µM. Besides, the TGI is 65.4 µM in [7]; over 100 µM in experiment [8]; 47.1 µM in experiment [9]; 64.8 µM in experiment [10]; 60.2 µM in [11]; 95.2 µM in experiment [12]. Besides, the TGI was over 100 µM in [13]; 73 µM in experiment [14]; over 100 µM in experiment [15]; over 100 µM in experiment [16]; over 100 µM in experiment [17].

As to `C=C1CC2CC(=O)C(O)C(C1)C2` (configuration not stated), the TGI in [1], in experiment [2], in experiment [3], in experiment [18], in experiment [4] and in experiment [5] was over 100 µM each time. In addition, the TGI in [6], in [8], in experiment [9], in experiment [10], in experiment [12] and in [14] was over 100 µM in each case. For the same molecule, the TGI in experiment [15] and in experiment [16] was over 100 µM each time.

As to `CC(CO)(CBr)COC(=O)c1cc(Br)c(N)c(Br)c1` (configuration not stated), the TGI in experiment [1], in [2], in experiment [3], in experiment [19], in experiment [18] and in [4] was over 100 µM each time. Moreover, the TGI in experiment [5], in experiment [6], in experiment [7], in [8], in [9] and in [10] was over 100 µM in each case. Also, the TGI in experiment [11] was over 100 µM; in experiment [12], over 100 µM; in [13] it was over 100 µM; in experiment [15] it was 45.9 µM; in experiment [17], over 100 µM.

`CC1(C)CCCCCCC2CC2CCCCCC(C)(C)C1=O` (configuration not stated): the TGI is 70.1 µM in [1]; over 100 µM in [2]; over 100 µM in experiment [20]; over 100 µM in experiment [3]; over 100 µM in [19]; over 100 µM in experiment [18]. Also, the TGI in experiment [4] was over 100 µM; in [5], over 100 µM; in experiment [6], over 100 µM; in experiment [7], over 100 µM; in [8], over 100 µM; in experiment [9] it was 39.4 µM. Besides, the TGI was 20.7 µM in experiment [10]; over 100 µM in [11]; over 100 µM in experiment [12]; over 100 µM in experiment [13]; over 100 µM in experiment [14]; over 100 µM in [15]. Also, the TGI in experiment [17] is over 100 µM.

On to `O=C1C(=c2cc3c(c4ccccc24)=NC24CCCCC2C(c2ccccc2)C=C(c2ccccc2)N34)C(=O)c2ccccc21` (configuration not stated), for which the TGI is 53.8 µM in experiment [1]; over 100 µM in experiment [2]; over 100 µM in [20]; over 100 µM in [3]; over 100 µM in experiment [18]; over 100 µM in experiment [5]. Moreover, the TGI in [6] was 70.8 µM; in experiment [7], over 100 µM; in experiment [9] it was over 100 µM; in experiment [10], 79.7 µM; in experiment [11] it was over 100 µM; in [12] it was 64.7 µM. Besides, the TGI in experiment [13], in experiment [14], in experiment [15], in [16] and in experiment [17] was over 100 µM each time.

Consider `COC(=O)c1cc(C)ccc1C1CN=NC12Cc1cccc(C)c1C2=O` (configuration not stated), for which the TGI is 54.9 µM in experiment [1]; 35.6 µM in [2]; 67.5 µM in experiment [20]; over 100 µM in [3]; over 100 µM in experiment [18]; over 100 µM in [4]. Moreover, the TGI in [5] was 96.4 µM; in [6], 61.8 µM; in experiment [8] it was over 100 µM; in experiment [9] it was 99 µM; in [10], over 100 µM; in experiment [11], over 100 µM. In addition, the TGI in experiment [12] was 54.7 µM; in [13], over 100 µM; in experiment [14], over 100 µM; in [15], over 100 µM; in [16], over 100 µM; in experiment [17], over 100 µM.

Take `CC1C2(C)OC(=N)C(C#N)(C(C)O2)C1(C#N)C#N` (configuration not stated): the TGI in experiment [2] is over 100 µM; in experiment [20], 62.3 µM; in experiment [3], over 100 µM; in experiment [19], 92.5 µM; in [18], 29.8 µM; in [4], 86.8 µM. Besides, the TGI in [5] was over 100 µM; in experiment [7] it was 46.6 µM; in [8], 28.8 µM; in [9] it was 51.3 µM; in experiment [11], 50 µM; in experiment [12] it was over 100 µM. Moreover, the TGI in [13] is over 100 µM; in [14] it was over 100 µM; in [15] it was 37.6 µM; in experiment [16] it was 61.9 µM; in experiment [17] it was 88.6 µM.

For the molecule `COC(=O)C(Cc1c(C2Nc3ccccc3C2CC(NC(C)=O)C(=O)OC)[nH]c2ccccc12)NC(C)=O` (configuration not stated), the TGI in experiment [1], in experiment [2], in [20], in [3], in experiment [19] and in experiment [18] was over 100 µM each time. Further, the TGI in experiment [4], in experiment [5], in experiment [6], in experiment [7], in experiment [8] and in experiment [9] was over 100 µM in each case. Moreover, the TGI in [11], in experiment [12], in experiment [13], in experiment [14], in experiment [15] and in experiment [17] was over 100 µM in each case.

The record behind these values is PubChem BioAssay (NCI).
